Reference: patent US8841422B2, “Human androgen receptor alternative splice variants” (University of Maryland, Baltimore, priority 2008, dated 2014)

Experiments:
AR = format: cell-based, human; conditions: LNCaP cells
From the text: (H) LNCaP cells were infected with (+) or without (−) the lentivirus encoding AR shRNA (shAR) as described previously. At 6 hr postinfection, the cells were transfected with ARR2-Luciferase reporter along with AR3 or the codon-switched wild-type AR expressing vector (ARcs).
Briefly, cells grown in 24-well plates were transiently transfected with different plasmid constructs using LipofectAM1NE 2000 (Invitrogen) for LNCaP cells and FuGENE HI) (Roche) for COS-1 cells following the manufacturer's instruction. […] Dual-Luciferase assays were performed according to the protocol from the manufacturer (Promega).

80 kD ARs = experiment: Western blot with anti-AR after AR shRNAs in CWR-R1 cells; format: cell-based, human; conditions: 48 hr post infection
From the text: FIGS. 1A-H: Cloning of novel alternative splice AR isoforms. (A) Presence of the short forms of AR in prostate cancer cells. Total cell lysates of different prostate cancer cells were blotted with anti-AR (441) antibody (upper) and anti-Actin antibody (lower). (B) Selective knockdown of AR long/short forms by AR shRNAs. CWR-R1 cells were infected with the lentivirus encoding AR shRNAa, AR shRNAb, and AR shRNAc (shARa, shARb and shARc) targeting different exons of AR as indicated in (D). At 48 hr post infection, the total cell lysates were subjected to western blot with anti-AR antibody. The same blot was stained with Coomassie Blue to show the protein loading (right panel). (C) Presence of AR isoform transcripts in CWR-R1 cells. Total RNA was isolated from CWR-R1 cells and reverse transcribed. The primer derived from AR shRNAc sequence was used to perform a rapid amplification of cDNA 3′-end (3′-RACE) with the RACE oligo-dT primer or a control primer. (D) Schematic structure of the human AR splice variants. The hatched cassettes stand for the cryptic exons. Solid thick lines represent the transcribed sequences. (E) Expression of AR isoforms in prostate cancer cells. The relative expression levels of AR, AR3, AR4 and AR5 were quantified using real-time PCR with the isoform specific primer pair sets described in Methods (left panel). The AR level in LNCaP cells was arbitrarily set as 1. The expression levels of AR3 in LNCaP and C-8 1 cells were further plotted with a higher resolution. *p<0.05 (right panel). (F) Transcriptional activity of AR isoforms. COS-1 cells were transfected with ARR.2-luciferase reporter gene together with AR, AR3, AR4 and AR5 expression vector. At 24 hr posttransfection, the cells were lysed and the luciferase activity was measured. The data were expressed as relative promoter activity, the changes of luciferase activity relative to the untreated control (arbitrarily set as 1). (G) COS-1 cells were transfected with ARR2-Luciferase reporter along with increasing doses of AR3 or AR expressing vector. […]

22Rv1 cells = experiment: In vitro cell growth assay in androgen-depleted condition; format: cell-based, human; conditions: 22Rv1, 2 weeks culture, Coomassie Blue staining
Protocol: (§1) FIGS. 4A-D: AR3 promotes androgen-independent growth of prostate cancer cells. LNCaP cells were infected with lentivirus encoding AR3 expression construct (AR3) or the control vector. After 2-week culture in androgen-depleted condition, the cells were visualized by Coomassie Blue staining (A). At 48 hr post infection, the cells were injected into the castrated SCID mice and the growth of the tumor cells were monitored weekly. The result represent the mean tumor volume±SE (n=5 mice/group), *p<0.05 Inset, Western blots of anti-AR3 and anti-AR of the LNCaP xenograft tumor lysates (B). CWR-R1 and 22Rv1 cells were infected with lentivirus encoding AR3 shRNA-1 (shAR3) or control shRNA (shCon). After 2 weeks culture in androgen-depleted condition, the cells were visualized by Coomassie Blue staining (C). At 48 hr postinfection, the cells were injected into the castrated male nude mice. The growth of the tumors was monitored weekly. The result represents the mean tumor volume±SE (n=5 mice/group), *p<0.05 (D). […]
(§2) In vitro cell growth assay and In vivo tumor growth in xenograft models LNCaP, CWR-R1 and 22Rv1 cells were infected with the lentiviruses bearing the shRNA sequences and the AR3 expression constructs as indicated. […] The volumes of the tumors formed on both sides were measured weekly and calculated by using the formula: 0.5236×r1^2×r2 (r1<r2). […]

CWR-R1 cells = experiment: as above; format: cell-based, human; conditions: CWR-R1, 2 weeks culture, Coomassie Blue staining
Protocol: as §1, §2

CWR-R1 xenograft = experiment: In vivo tumor growth in xenograft model, castrated male nude mice; conditions: CWR-R1 cells infected 48 hr before s.c. injection
Protocol: as §1, §2

22Rv1 xenograft = experiment: as above; conditions: 22Rv1 cells infected 48 hr before s.c. injection
Protocol: as §1, §2

| Molecule | activity of endogenous AR or codon-switched wild-type AR (luciferase reporter) (AR) | knock-down of 80 kD ARs (80 kD ARs) | further results |
| --- | --- | --- | --- |
| CC(O)(CS(=O)(=O)c1ccc(F)cc1)C(=O)Nc1ccc(C#N)c(C(F)(F)F)c1 (stereo not drawn) [casodex] | blocked | – | – |
| shARb: shRNA specific for human AR gene, lentiviral pLKO.1-puro vector from Sigma, targeting Exon 5, SEQ ID NO: 11 (CCGGCACCAATGTCAACTCCAGGATCTCGAGATCCTGGAGTTGACATTGGTGTTTTT) | – | barely affected | – |
| shARc: shRNA specific for human AR gene, lentiviral pLKO.1-puro vector from Sigma, targeting the 1st Exon, SEQ ID NO: 12 (CCGGCGCGACTACTACAACTTTCCACTCGAGTGGAAAGTTGTAGTAGTCGCGUTTT) | – | efficiently knocked down | – |
| shARa: shRNA specific for human AR gene, lentiviral pLKO.1-puro vector from Sigma, targeting Exon 8, SEQ ID NO: 10 (CCGGCCTGCTAATCAAGTCACACATCTCGAGATGTGTGACTTGATTAGCAGGTTTTT) | – | barely affected | – |
| C[C@]12CCC(=O)C[C@@H]1CC[C@@H]1[C@@H]2CC[C@]2(C)[C@@H](O)CC[C@@H]12 [DHT] | induced | – | – |
| shAR3-1: lentivirus encoded shRNA specific for AR3 isoform, made using SEQ ID NOS: 13 and 14 (nucleic acid) chain 1: TGTAATAGTGGTTACCACTCTTCAAGAGAGAGTGGTAACCACTATTACTTTTTTTTC chain 2: TCGAGAAAAAAAAGTAATAGTGGTTACCACTCTCTCTTGAAGAGTGGTAACCACTATTACA | – | – | cell growth in androgen-depleted medium (22Rv1 cells): attenuated their growth; cell growth in androgen-depleted medium (CWR-R1 cells): attenuated their growth; tumor growth in castrated nude mice (CWR-R1 xenograft): attenuated their growth; tumor growth in castrated nude mice (22Rv1 xenograft): attenuated their growth |
